In this assay the test system is primary rat mixed cortical cells. The experiment in a line: In vitro myelination assay (MBP positive myelin strands, fold myelin pixels above background). The assay is classed as cell-based. Conditions: Rattus norvegicus; for fold induction at 1 µM: 1.0 μM compound; for fold induction at 10 µM: 10.0 μM compound. The method, boiled down:
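P1 rat cortical cells (neurons, OPCs, oligodendrocytes, astrocytes, microglia) were cultured 14 days at 37 °C with compound, with half-medium changes containing 1× compound on days 6 and 10. Fixed cells were immunostained for MBP and imaged at 10×. Total MBP myelin pixels per well were expressed as fold above no-compound baseline at 1.0 μM and 10.0 μM.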

Setting [1] is: relative to baseline of no added compound, read-out: Fold myelin pixels above background, 1.0 μM.
Setting [2] is: relative to baseline of no added compound, read-out: Fold myelin pixels above background, 10.0 μM.
The mark [3] stands for this setting: read-out: Fold myelin pixels above background relative to baseline of no added compound.
The mark [4] stands for this setting: relative to baseline of no added compound, read-out: Fold myelin pixels above background.

Where two headings read alike, the source gives them in different places. Bounds are passed on as bounds.

In the case of `Cc1cc(Nc2ncn(-c3cnccn3)n2)cc(C2CCCN(C3COC3)C2)c1` (stereo not drawn) [Compound 74, N-[3-methyl-5-[1-(oxetan-3-yl)-3-piperidyl]phenyl]-1-pyrazin-2-yl-1,2,4-triazol-3-amine], under setting [1], the fold induction at 1 µM lay within 100 to 1000. The fold induction at 10 µM under setting [2] was 100 to 1000.

As for `FC(F)c1cc(Nc2ncn(-c3cccc(C(F)(F)F)c3)n2)nc(N2CCOCC2)c1` [Compound 867, 4-(difluoromethyl)-6-morpholino-N-[1-[3-(trifluoromethyl)phenyl]-1,2,4-triazol-3-yl]pyridin-2-amine], under setting [3], the fold induction at 1 µM was 10 to 100 and the fold induction at 10 µM was in the range of 10 to 100.

With `CC(C)c1cc(Nc2ncn(-c3cccc(F)c3)n2)cc(N2CCN(C3COC3)CC2)c1` [Compound 523, 1-(3-fluorophenyl)-N-[3-isopropyl-5-[4-(oxetan-3-yl)piperazin-1-yl]phenyl]-1,2,4-triazol-3-amine], under setting [4], the fold induction at 1 µM lay within 100 to 1000 and the fold induction at 10 µM was not above 1.

As for `Cc1cc(Nc2ncn(-c3cc(F)cc(F)c3)n2)cc(N2CC3(COC3)C2)c1` [Compound 171, 1-(3,5-difluorophenyl)-N-[3-methyl-5-(6-oxa-2-azaspiro[3.3]heptan-2-yl)phenyl]-1,2,4-triazol-3-amine], the fold induction at 1 µM under setting [1] was in the range of 10 to 100. In addition, under setting [2], the fold induction at 10 µM lay within 100 to 1000.

With `COc1cccc(-n2cnc(Nc3cc(C)cc(N4CCN(C)CC4)c3)n2)c1` [Compound 94, 1-(3-methoxyphenyl)-N-[3-methyl-5-(4-methylpiperazin-1-yl)phenyl]-1,2,4-triazol-3-amine], the fold induction at 1 µM under setting [1] was in the range of 100 to 1000. The fold induction at 10 µM under setting [2] is 1 to 10.

On to `Cc1cc(Nc2ncn(-c3cc(F)cc(F)c3)n2)cc(N2CCN(C)C(=O)C2)c1` [Compound 360, 4-[3-[[1-(3,5-difluorophenyl)-1,2,4-triazol-3-yl]amino]-5-methyl-phenyl]-1-methyl-piperazin-2-one], for which, under setting [1], the fold induction at 1 µM lay within 10 to 100. Also, the fold induction at 10 µM under setting [2] lay in the range of 10 to 100.

With `N#Cc1cc(Nc2ncn(-c3ccc(F)c(F)c3)n2)cc(N2CCN(C3COC3)CC2)c1` [Compound 656, 3-[[1-(3,4-difluorophenyl)-1,2,4-triazol-3-yl]amino]-5-[4-(oxetan-3-yl)piperazin-1-yl]benzonitrile], under setting [4], the fold induction at 1 µM fell in the range of 1 to 10 and the fold induction at 10 µM was not above 1.

With `COCC1CCN(c2cc(C(F)F)cc(Nc3ncn(-c4cc(F)cc(F)c4)n3)n2)CC1` [Compound 729, 4-(difluoromethyl)-N-[1-(3,5-difluorophenyl)-1,2,4-triazol-3-yl]-6-[4-(methoxymethyl)-1-piperidyl]pyridin-2-amine], under setting [4], the fold induction at 1 µM was not above 1 and the fold induction at 10 µM was 10 to 100.

With `CCOCC1CCCN1c1cc(F)cc(-n2cnc(Nc3cc(C)cc(N4CCN(C5COC5)CC4)c3)n2)c1` (stereo not drawn) [Compound 41, 1-[3-[2-(ethoxymethyl)pyrrolidin-1-yl]-5-fluoro-phenyl]-N-[3-methyl-5-[4-(oxetan-3-yl)piperazin-1-yl]phenyl]-1,2,4-triazol-3-amine], the fold induction at 1 µM under setting [1] was in the range of 10 to 100. Further, the fold induction at 10 µM under setting [2] is not above 1.

For the molecule `Cc1cc(NCCN2CCOCC2C)cc(Nc2ncn(-c3cc(F)cc(F)c3)n2)c1` (stereo not drawn) [Compound 1082, N1-[1-(3,5-difluorophenyl)-1,2,4-triazol-3-yl]-5-methyl-N3-[2-(3-methylmorpholin-4-yl)ethyl]benzene-1,3-diamine], under setting [3], the fold induction at 1 µM was 10 to 100 and the fold induction at 10 µM was not above 1.

Take `Cc1cc(Nc2ncn(-c3cc(F)cc(F)c3)n2)cc(N2CCN(CCN(C)C)CC2)c1` [Compound 809, 1-(3,5-difluorophenyl)-N-[3-[4-[2-(dimethylamino)ethyl]piperazin-1-yl]-5-methyl-phenyl]-1,2,4-triazol-3-amine]: under setting [3], the fold induction at 1 µM fell in the range of 1 to 10 and the fold induction at 10 µM was not above 1.

Regarding `Cc1cc(Nc2ncn(-c3cc(F)cc(F)c3)n2)cc(N2CC3CC(C2)O3)c1` [Compound 527, 1-(3,5-difluorophenyl)-N-[3-methyl-5-(6-oxa-3-azabicyclo[3.1.1]heptan-3-yl)phenyl]-1,2,4-triazol-3-amine], under setting [4], the fold induction at 1 µM is 100 to 1000 and the fold induction at 10 µM lay within 100 to 1000.

Regarding `Cc1cc(Nc2ncn(-c3cc(F)cc(F)c3)n2)cc([C@@]2(C)CN(C)C(=O)O2)c1` (single isomer, unassigned) [Compound 611], under setting [4], the fold induction at 1 µM lay within 10 to 100 and the fold induction at 10 µM was in the range of 1 to 10.

With `CCc1cc(Nc2ncn(-c3ccnc(SC)n3)n2)cc(N2CCN(C3COC3)CC2)c1` [Compound 132, N-[3-ethyl-5-[4-(oxetan-3-yl)piperazin-1-yl]phenyl]-1-(2-methylsulfanylpyrimidin-4-yl)-1,2,4-triazol-3-amine], the fold induction at 1 µM under setting [1] was 1 to 10. Under setting [2], the fold induction at 10 µM was 1 to 10.

As to `Cc1cc(NCCN2CCOC(C)C2)cc(Nc2ncn(-c3cc(F)cc(F)c3)n2)c1` (stereo not drawn) [Compound 928, N1-[1-(3,5-difluorophenyl)-1,2,4-triazol-3-yl]-5-methyl-N3-[2-(2-methylmorpholin-4-yl)ethyl]benzene-1,3-diamine], under setting [3], the fold induction at 1 µM lay within 10 to 100 and the fold induction at 10 µM is not above 1.

Consider `Cc1cc(NCC2CN(C(=O)OC(C)(C)C)C2)cc(Nc2ncn(-c3cc(F)cc(F)c3)n2)c1` [Compound 1084, tert-butyl 3-[[3-[[1-(3,5-difluorophenyl)-1,2,4-triazol-3-yl]amino]-5-methyl-anilino]methyl]azetidine-1-carboxylate], for which, under setting [3], the fold induction at 1 µM fell in the range of 10 to 100 and the fold induction at 10 µM lay in the range of 1 to 10.

Regarding `COC1(CNc2cc(C)cc(Nc3ncn(-c4cc(F)cc(F)c4)n3)c2)CCC1` [Compound 1029, N1-[1-(3,5-difluorophenyl)-1,2,4-triazol-3-yl]-N3-[(1-methoxycyclobutyl)methyl]-5-methyl-benzene-1,3-diamine], under setting [3], the fold induction at 1 µM fell in the range of 10 to 100 and the fold induction at 10 µM was in the range of 10 to 100.

`CC(=O)N1CCC(Oc2cc(C)cc(Nc3ncn(-c4ccc(F)c(F)c4)n3)c2)CC1` [Compound 626, 1-[4-[3-[[1-(3,4-difluorophenyl)-1,2,4-triazol-3-yl]amino]-5-methyl-phenoxy]-1-piperidyl]ethanone]: under setting [4], the fold induction at 1 µM lay in the range of 10 to 100 and the fold induction at 10 µM was not above 1.

Take `Cc1cc(Nc2ncn(-c3cc(F)cc(F)c3)n2)cc(N2CC(N3CCCCC3)C2)c1` [Compound 634, 1-(3,5-difluorophenyl)-N-[3-methyl-5-[3-(1-piperidyl)azetidin-1-yl]phenyl]-1,2,4-triazol-3-amine]: under setting [4], the fold induction at 1 µM is 10 to 100 and the fold induction at 10 µM lay in the range of 10 to 100.

With `Cc1cc(Nc2ncn(-c3ccnnc3)n2)cc(N2CCN(C)CC2)c1` [Compound 399, N-[3-methyl-5-(4-methylpiperazin-1-yl)phenyl]-1-pyridazin-4-yl-1,2,4-triazol-3-amine], under setting [4], the fold induction at 1 µM lay within 10 to 100 and the fold induction at 10 µM was in the range of 1 to 10.

Turning to `Cc1cc(Nc2ncn(-c3ccccc3)n2)cc(Nc2ncc(C)o2)c1` [Compound 1049, 5-methyl-N1-(5-methyloxazol-2-yl)-N3-(1-phenyl-1,2,4-triazol-3-yl)benzene-1,3-diamine], under setting [3], the fold induction at 1 µM lay within 1 to 10 and the fold induction at 10 µM was in the range of 10 to 100.

`Cc1cc(Nc2ncn(-c3cc(F)cc(F)c3)n2)cc(N2CCN(CCCO)CC2)c1` [Compound 990, 3-[4-[3-[[1-(3,5-difluorophenyl)-1,2,4-triazol-3-yl]amino]-5-methyl-phenyl]piperazin-1-yl]propan-1-ol]: under setting [3], the fold induction at 1 µM is not above 1 and the fold induction at 10 µM is not above 1.

Turning to `CCc1cc(F)cc(-n2cnc(Nc3cc(C)cc(N4CCN(C5COC5)CC4)c3)n2)c1` [Compound 206, 1-(3-ethyl-5-fluoro-phenyl)-N-[3-methyl-5-[4-(oxetan-3-yl)piperazin-1-yl]phenyl]-1,2,4-triazol-3-amine], the fold induction at 1 µM under setting [1] was 100 to 1000. Moreover, the fold induction at 10 µM under setting [2] is 100 to 1000.

As to `Cc1cc(Nc2ncn(-c3cc(F)cc(F)c3)n2)cc(N2CCN(CC3CCCO3)CC2)c1` (stereo not drawn) [Compound 914, 1-(3,5-difluorophenyl)-N-[3-methyl-5-[4-(tetrahydrofuran-2-ylmethyl)piperazin-1-yl]phenyl]-1,2,4-triazol-3-amine], under setting [3], the fold induction at 1 µM was in the range of 10 to 100 and the fold induction at 10 µM is not above 1.

`Cc1cc(Nc2ncn(-c3ccncn3)n2)cc(N2CCN(C3CC3)CC2)c1` [Compound 176, N-[3-(4-cyclopropylpiperazin-1-yl)-5-methyl-phenyl]-1-pyrimidin-4-yl-1,2,4-triazol-3-amine]: the fold induction at 1 µM under setting [1] was 100 to 1000. Also, the fold induction at 10 µM under setting [2] fell in the range of 100 to 1000.

With `Cc1cc(OCC2COC2)cc(Nc2ncn(-c3cc(F)cc(F)c3)n2)c1C` [Compound 909, 1-(3,5-difluorophenyl)-N-[2,3-dimethyl-5-(oxetan-3-ylmethoxy)phenyl]-1,2,4-triazol-3-amine], under setting [3], the fold induction at 1 µM is 1 to 10 and the fold induction at 10 µM lay in the range of 10 to 100.

Turning to `Cc1cc(Nc2ncn(-c3cc(F)cc(F)c3)n2)cc([C@@]2(O)CCN(C3COC3)C2)c1` (single isomer, unassigned) [Compound 101], the fold induction at 1 µM under setting [1] was in the range of 1000 to 10000. For the same molecule, under setting [2], the fold induction at 10 µM lay within 1 to 10.

Source of the values: patent US10766869B2, “Triazoles for the treatment of demyelinating dieases” (Vertex Pharmaceuticals Incorporated, priority 2015, dated 2020).
